This note sets out measurements from US12404239B2, “Modulators of BCL6 as ligand directed degraders” (Celgene Corporation, priority 2022, dated 2025).

The structures appear in SMILES notation.

One test deals with T1, BCL6 (Homo sapiens, UniProt P41182).
T1 construct: HiBiT-tag knocked into endogenous BCL6 locus using CRISPR; endogenous in cells; host or cells: DHL-4_BCL6_HiBiT cells (CRISPR knock-in)
Briefly: BCL6_HiBiT degradation assay (2 h). It counts as cell-based. Particulars: DHL-4_BCL6_HiBiT cells. The protocol: A DHL-4 cell line with HiBiT-tag knocked into endogenous BCL6 locus using CRISPR was generated. The DHL-4_BCL6_HiBiT cells were dispensed into 384-well plates (Corning no. 3570) that were pre-spotted with compounds. Compounds were dispensed by an acoustic dispenser (ATS acoustic transfer system from EDC Biosystems) into a 384-well plate in a 10-point dose response curve using 3-fold dilutions starting at 1-10 μM and going down to […]. 25 μL of media (RPMI-1640+10% heat inactivated FBS+1×Pen/Strep) containing 2500 of DHL-4 was dispensed per well. Assay plates were incubated at 37° C. with 5% CO2 for 2 hours. After incubation, 25 μL of the Nano-Glo HiBiT lytic detection working solution (Promega, catalogue no. N3040, Madison, WI) was added to each well and incubated at room temperature for 15-30 min, protected from light. After 30 min, luminescence was read on an Envision or PHERAstar luminescence reader. To determine the EC50 value (the half-maximum effective concentration) and the level of the gradation (Yconstant) of a BCL6 degrader, luminescent signal normalized by DMSO control (Y) and compound concentration (x) was fitted using a four-parameter dose-response model (Y=(A+((B−A)/1+((C/x)^D) in Dotmatics. Fitted value C is the degradation EC50 and the minimum value A is the Y constant.
The degradation of BCL6 at 2 h in DHL-4 results are shown in Table 5, where EC50 is the half maximal effect and Ycon is the % remaining maximal effect.
For the compound `CC1CN(c2ncc(Cl)c(Nc3ccc4c(c3)CC(=O)N4C)n2)CCCC1Nc1ccc2c(C3CCC(=O)NC3=O)nn(C)c2c1` (single isomer, unassigned) [Example 50, 3-(6-((1-(5-chloro-4-((1-methyl-2-oxoindolin-5-yl)amino)pyrimidin-2-yl)-3-methylazepan-4-yl)amino)-1-methyl-1H-indazol-3-yl)piperidine-2,6-dione], the “YCon (% remaining maximal effect)” value is “(>60%)”.
Turning to `CC1CN(c2ncc(Cl)c(Nc3ccc4c(c3)CC(=O)N4C)n2)CCCC1Nc1ccc2c(C3CCC(=O)NC3=O)nn(C)c2c1` (single isomer, unassigned) [Example 51, 3-(6-((1-(5-chloro-4-((1-methyl-2-oxoindolin-5-yl)amino)pyrimidin-2-yl)-3-methylazepan-4-yl)amino)-1-methyl-1H-indazol-3-yl)piperidine-2,6-dione], the “YCon (% remaining maximal effect)” value is on record as “^^ (20-60%)”.
On to `CN1C(=O)Cc2cc(Nc3nc(N4CCC(Nc5ccc6c(C7CCC(=O)NC7=O)nn(C)c6c5)CC4)ncc3Cl)ccc21` (single isomer, unassigned) [Example 53], for which the “YCon (% remaining maximal effect)” value was “^^ (20-60%)”.
For the compound `CN1C(=O)Cc2cc(Nc3nc(N4CCC(Nc5ccc6c(C7CCC(=O)NC7=O)nn(C)c6c5)CC4)ncc3Cl)ccc21` (single isomer, unassigned) [Example 54], the “YCon (% remaining maximal effect)” value is “(>60%)”.

Still in this test, the particulars now being: DHL-4_BCL6_HiBiT cells, read-out: YCon (% remaining maximal effect).
As to `CN1C(=O)Cc2cc(Nc3nc(N4CC[C@H](Nc5ccc6c(C7CCC(=O)NC7=O)nn(C)c6c5)[C@H](C(F)(F)F)C4)ncc3Cl)ccc21` (relative stereo) [Example 147, rel-3-(6-(((3R,4S)-1-(5-chloro-4-((1-methyl-2-oxoindolin-5-yl)amino)pyrimidin-2-yl)-3-(trifluoromethyl)piperidin-4-yl)amino)-1-methyl-1H-indazol-3-yl)piperidine-2,6-dione], the Percent BCL6 remaining at maximal degradation (Ycon) was above 60%.
Still for that read-out and setting: the value for `CC1CCN(c2ncc(Cl)c(Nc3ccc4c(c3)CC(=O)N4C)n2)CCC1Nc1ccc2c(C3CCC(=O)NC3=O)nn(C)c2c1` (single isomer, unassigned) [Example 48, 3-(6-((1-(5-chloro-4-((1-methyl-2-oxoindolin-5-yl)amino)pyrimidin-2-yl)-5-methylazepan-4-yl)amino)-1-methyl-1H-indazol-3-yl)piperidine-2,6-dione] was above 60%; that for `C[C@@H]1CN(c2ncc(Cl)c(Nc3ccc4c(c3)CC(=O)N4C)n2)CC[C@H]1Nc1ccc2c([C@H]3CCC(=O)NC3=O)nn(C)c2c1` (single isomer, unassigned) [Example 71] was below 20%; that for `C[C@@H]1CN(c2ncc(Cl)c(Nc3ccc4c(c3)CC(=O)N4C)n2)CC[C@H]1Nc1ccc2c([C@@H]3CCC(=O)NC3=O)nn(C)c2c1` (single isomer, unassigned) [Example 72] was below 20%.
In the case of `COCCN1C(=O)Cc2cc(Nc3nc(N4CC[C@@H](Nc5ccc6c([C@H]7CCC(=O)NC7=O)nn(C)c6c5)[C@H](C)C4)ncc3Cl)ccc21` (single isomer, unassigned) [Example 76], the Percent BCL6 remaining at maximal degradation (Ycon) is below 20%.
Same read-out and setting: the value for `COCCN1C(=O)Cc2cc(Nc3nc(N4CC[C@@H](Nc5ccc6c([C@@H]7CCC(=O)NC7=O)nn(C)c6c5)[C@H](C)C4)ncc3Cl)ccc21` (single isomer, unassigned) [Example 77] was below 20%; that for `C[C@@H]1CN(c2ncc(Cl)c(Nc3ccc4c(c3)CC(=O)N4C)n2)C[C@@H](C)N1c1ccc2c([C@H]3CCC(=O)NC3=O)nn(C)c2c1` (single isomer, unassigned) [Example 79] was 20 to 60%; that for `C[C@@H]1CN(c2ncc(Cl)c(Nc3ccc4c(c3)CC(=O)N4C)n2)C[C@@H](C)N1c1ccc2c([C@@H]3CCC(=O)NC3=O)nn(C)c2c1` (single isomer, unassigned) [Example 80] was above 60%.
The same measure, in the same setting: the value for `C[C@H]1C[C@H](Nc2ccc3c([C@H]4CCC(=O)NC4=O)nn(C)c3c2)CCN1c1ncc(Cl)c(Nc2ccc3c(c2)CC(=O)N3C)n1` (single isomer, unassigned) [Example 82] was below 20%; that for `C[C@H]1C[C@H](Nc2ccc3c([C@@H]4CCC(=O)NC4=O)nn(C)c3c2)CCN1c1ncc(Cl)c(Nc2ccc3c(c2)CC(=O)N3C)n1` (single isomer, unassigned) [Example 83] was 20 to 60%.
On the same count and under the same terms, with `C[C@H]1C[C@H](N(C)c2ccc3c([C@H]4CCC(=O)NC4=O)nn(C)c3c2)CCN1c1ncc(Cl)c(Nc2ccc3c(c2)CC(=O)N3C)n1` (single isomer, unassigned) [Example 87] the figure was above 60%.
As to `C[C@H]1C[C@H](N(C)c2ccc3c([C@@H]4CCC(=O)NC4=O)nn(C)c3c2)CCN1c1ncc(Cl)c(Nc2ccc3c(c2)CC(=O)N3C)n1` (single isomer, unassigned) [Example 88], the Percent BCL6 remaining at maximal degradation (Ycon) is above 60%.
On to `CCN1C(=O)Cc2cc(Nc3nc(N4CCC(Nc5ccc6c([C@H]7CCC(=O)NC7=O)nn(C)c6c5)CC4)ncc3Cl)ccc21` (single isomer, unassigned) [Example 90], for which the Percent BCL6 remaining at maximal degradation (Ycon) was above 60%.
Still for that read-out and setting: the value for `CCN1C(=O)Cc2cc(Nc3nc(N4CCC(Nc5ccc6c([C@@H]7CCC(=O)NC7=O)nn(C)c6c5)CC4)ncc3Cl)ccc21` (single isomer, unassigned) [Example 91] was above 60%; that for `C[C@@H]1CN(c2ncc(Cl)c(Nc3cc4c(cc3F)N(C)C(=O)C4)n2)CC[C@H]1Nc1ccc2c([C@H]3CCC(=O)NC3=O)nn(C)c2c1` (single isomer, unassigned) [Example 93] was below 20%; that for `C[C@@H]1CN(c2ncc(Cl)c(Nc3cc4c(cc3F)N(C)C(=O)C4)n2)CC[C@H]1Nc1ccc2c([C@@H]3CCC(=O)NC3=O)nn(C)c2c1` (single isomer, unassigned) [Example 94] was below 20%.
Still for that read-out and setting: the value for `C[C@@H]1CN(c2ncc(Cl)c(Nc3cc(F)c4c(c3)CC(=O)N4C)n2)CC[C@H]1Nc1ccc2c([C@H]3CCC(=O)NC3=O)nn(C)c2c1` (single isomer, unassigned) [Example 96] was below 20%; that for `C[C@@H]1CN(c2ncc(Cl)c(Nc3cc(F)c4c(c3)CC(=O)N4C)n2)CC[C@H]1Nc1ccc2c([C@@H]3CCC(=O)NC3=O)nn(C)c2c1` (single isomer, unassigned) [Example 97] was below 20%.
Regarding `C[C@@H]1CN(c2ncc(Cl)c(Nc3ccc4c(c3F)CC(=O)N4C)n2)CC[C@H]1Nc1ccc2c([C@H]3CCC(=O)NC3=O)nn(C)c2c1` (single isomer, unassigned) [Example 99], the Percent BCL6 remaining at maximal degradation (Ycon) was below 20%.
Same read-out and setting: the value for `C[C@@H]1CN(c2ncc(Cl)c(Nc3ccc4c(c3F)CC(=O)N4C)n2)CC[C@H]1Nc1ccc2c([C@@H]3CCC(=O)NC3=O)nn(C)c2c1` (single isomer, unassigned) [Example 100] was below 20%; that for `C[C@@H]1CN(c2ncc(Cl)c(Nc3ccc4c(c3)CC(=O)N4CCN3CCOCC3)n2)CC[C@H]1Nc1ccc2c([C@H]3CCC(=O)NC3=O)nn(C)c2c1` (single isomer, unassigned) [Example 102] was below 20%.
